According to the NIST ThermoML archive (doi:10.1016/j.jct.2016.11.002):

What was measured:
[1] = refractive index (Na D-line) (dimensionless); xn = mol fraction of the nth substance listed; details: 100 kPa, Liquid, Standard Abbe refractometry
[2] = xn = mol fraction of the nth substance listed; details: 100 kPa, Liquid; for speed of sound: Frequency=3 MHz, Single path-length method; for mass density: Vibrating tube method

COCCO [2-methoxyethan-1-ol] + CCOC(=O)OCC
Details	mass density, [2] [kg/m3]	refractive index, [1]	speed of sound, [2] [m/s]
298.15 K, x2 = 0	960.32	1.4001	1342.1
298.15 K, x2 = 0.0645	960.64	1.3989	1322.5
298.15 K, x2 = 0.1406	961.01	1.3976	1302.2
298.15 K, x2 = 0.2248	961.49	1.3963	1282.2
298.15 K, x2 = 0.3025	961.99	1.3951	1265.8
298.15 K, x2 = 0.3928	962.65	1.3936	1248.7
298.15 K, x2 = 0.4994	963.51	1.3916	1231.2
298.15 K, x2 = 0.6007	964.44	1.3897	1216.9
298.15 K, x2 = 0.7212	965.66	1.3874	1202.5
298.15 K, x2 = 0.8496	967.12	1.3851	1189.7
303.15 K, x2 = 0	955.71	1.3981	1324.7
303.15 K, x2 = 0.0645	955.91	1.3969	1304.6
303.15 K, x2 = 0.1406	956.16	1.3957	1283.8
303.15 K, x2 = 0.2248	956.52	1.3943	1263.4
303.15 K, x2 = 0.3025	956.91	1.3931	1246.7
303.15 K, x2 = 0.3928	957.45	1.3915	1229.4
303.15 K, x2 = 0.4994	958.2	1.3895	1211.7
303.15 K, x2 = 0.6007	959.03	1.3876	1197.2
303.15 K, x2 = 0.7212	960.16	1.3853	1182.5
303.15 K, x2 = 0.8496	961.54	1.3829	1169.5
308.15 K, x2 = 0	951.08	1.3961	1307.4
308.15 K, x2 = 0.0645	951.16	1.395	1286.7
308.15 K, x2 = 0.1406	951.29	1.3938	1265.4
308.15 K, x2 = 0.2248	951.51	1.3924	1244.7
308.15 K, x2 = 0.3025	951.79	1.3911	1227.7
308.15 K, x2 = 0.3928	952.22	1.3894	1210.2
308.15 K, x2 = 0.4994	952.85	1.3875	1192.4
308.15 K, x2 = 0.6007	953.59	1.3855	1177.7
308.15 K, x2 = 0.7212	954.63	1.3832	1162.7
308.15 K, x2 = 0.8496	955.94	1.3807	1149.3
313.15 K, x2 = 0	946.42	1.3943	1290
313.15 K, x2 = 0.0645	946.39	1.3931	1268.8
313.15 K, x2 = 0.1406	946.49	1.3918	1247
313.15 K, x2 = 0.2248	946.58	1.3904	1226
313.15 K, x2 = 0.3025	946.66	1.389	1208.8
313.15 K, x2 = 0.3928	946.97	1.3874	1191.2
313.15 K, x2 = 0.4994	947.49	1.3854	1173.2
313.15 K, x2 = 0.6007	948.13	1.3834	1158.3
313.15 K, x2 = 0.7212	949.08	1.3811	1143
313.15 K, x2 = 0.8496	950.31	1.3786	1129.4
318.15 K, x2 = 0	941.72	1.3922	1272.7
318.15 K, x2 = 0.0645	941.57	1.3913	1251
318.15 K, x2 = 0.1406	941.44	1.39	1228.8
318.15 K, x2 = 0.2248	941.41	1.3885	1207.4
318.15 K, x2 = 0.3025	941.48	1.3871	1190.1
318.15 K, x2 = 0.3928	941.67	1.3853	1172.3
318.15 K, x2 = 0.4994	942.07	1.3833	1154.1
318.15 K, x2 = 0.6007	942.61	1.3814	1139.1
318.15 K, x2 = 0.7212	943.46	1.379	1123.5
318.15 K, x2 = 0.8496	944.62	1.3764	1109.7
323.15 K, x2 = 0	936.89	1.3902	1255.4
323.15 K, x2 = 0.0645	936.71	1.3894	1233.2
323.15 K, x2 = 0.1406	936.46	1.3881	1210.6
323.15 K, x2 = 0.2248	936.29	1.3865	1188.9
323.15 K, x2 = 0.3025	936.25	1.385	1171.4
323.15 K, x2 = 0.3928	936.34	1.3832	1153.5
323.15 K, x2 = 0.4994	936.62	1.3812	1135.1
323.15 K, x2 = 0.6007	937.08	1.3792	1119.9
323.15 K, x2 = 0.7212	937.86	1.3768	1104.2
323.15 K, x2 = 0.8496	938.96	1.3743	1090

CCCOCCO [2-propoxyethanol] + CCOC(=O)OCC
Details	mass density, [2] [kg/m3]	refractive index, [1]	speed of sound, [2] [m/s]
298.15 K, x2 = 0	907.16	1.4103	1300.9
298.15 K, x2 = 0.0881	912.3	1.4089	1289.1
298.15 K, x2 = 0.1907	918.42	1.4074	1276.1
298.15 K, x2 = 0.2866	924.17	1.4062	1264
298.15 K, x2 = 0.3906	930.48	1.4046	1250.3
298.15 K, x2 = 0.484	936.17	1.4023	1237.8
298.15 K, x2 = 0.5955	943.04	1.3988	1223.4
298.15 K, x2 = 0.6907	948.97	1.3953	1211.7
298.15 K, x2 = 0.7908	955.29	1.3914	1200
298.15 K, x2 = 0.8939	961.94	1.3871	1188.5
303.15 K, x2 = 0	902.74	1.4081	1283.7
303.15 K, x2 = 0.0881	907.76	1.4068	1271.7
303.15 K, x2 = 0.1907	913.74	1.4054	1258.2
303.15 K, x2 = 0.2866	919.36	1.4042	1245.6
303.15 K, x2 = 0.3906	925.55	1.4026	1231.5
303.15 K, x2 = 0.484	931.11	1.4004	1218.7
303.15 K, x2 = 0.5955	937.84	1.3968	1203.9
303.15 K, x2 = 0.6907	943.65	1.3933	1192
303.15 K, x2 = 0.7908	949.85	1.3894	1180.1
303.15 K, x2 = 0.8939	956.4	1.385	1168.3
308.15 K, x2 = 0	898.32	1.4058	1266.4
308.15 K, x2 = 0.0881	903.19	1.4046	1254.2
308.15 K, x2 = 0.1907	909.01	1.4034	1240.2
308.15 K, x2 = 0.2866	914.52	1.4023	1227.1
308.15 K, x2 = 0.3906	920.55	1.4006	1212.7
308.15 K, x2 = 0.484	926.02	1.3984	1199.7
308.15 K, x2 = 0.5955	932.6	1.3948	1184.6
308.15 K, x2 = 0.6907	938.31	1.3912	1172.3
308.15 K, x2 = 0.7908	944.38	1.3873	1160.2
308.15 K, x2 = 0.8939	950.83	1.3828	1148.2
313.15 K, x2 = 0	893.89	1.4034	1249.2
313.15 K, x2 = 0.0881	898.63	1.4024	1236.8
313.15 K, x2 = 0.1907	904.33	1.4014	1222.3
313.15 K, x2 = 0.2866	909.68	1.4004	1208.8
313.15 K, x2 = 0.3906	915.57	1.3987	1194
313.15 K, x2 = 0.484	920.91	1.3964	1180.7
313.15 K, x2 = 0.5955	927.35	1.3928	1165.3
313.15 K, x2 = 0.6907	932.94	1.3892	1152.9
313.15 K, x2 = 0.7908	938.9	1.3851	1140.5
313.15 K, x2 = 0.8939	945.23	1.3805	1128.3
318.15 K, x2 = 0	889.45	1.4011	1231.9
318.15 K, x2 = 0.0881	894.03	1.4003	1219.3
318.15 K, x2 = 0.1907	899.58	1.3995	1204.5
318.15 K, x2 = 0.2866	904.8	1.3985	1190.6
318.15 K, x2 = 0.3906	910.54	1.3967	1175.3
318.15 K, x2 = 0.484	915.74	1.3944	1161.8
318.15 K, x2 = 0.5955	922.05	1.3908	1146.2
318.15 K, x2 = 0.6907	927.53	1.3872	1133.5
318.15 K, x2 = 0.7908	933.4	1.3831	1121
318.15 K, x2 = 0.8939	939.63	1.3782	1108.6
323.15 K, x2 = 0	885	1.3988	1215
323.15 K, x2 = 0.0881	889.44	1.3982	1201.9
323.15 K, x2 = 0.1907	894.82	1.3975	1186.8
323.15 K, x2 = 0.2866	899.91	1.3966	1172.5
323.15 K, x2 = 0.3906	905.53	1.3947	1156.9
323.15 K, x2 = 0.484	910.62	1.3924	1143.2
323.15 K, x2 = 0.5955	916.75	1.3888	1127.3
323.15 K, x2 = 0.6907	922.11	1.3852	1114.5
323.15 K, x2 = 0.7908	927.83	1.3809	1101.7
323.15 K, x2 = 0.8939	933.96	1.376	1089
